In patent publication US5358951A, “Angiotensin II receptor blocking 2, 3, 6 substituted quinazolinones” (American Cyanamid Company, priority 1993, dated 1994):

Tested on: vasopressor response of angiotensin II
Test: AII Challenge: antagonism of angiotensin II vasopressor response;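 on Response Average Change: post-dose Angiotensin II-evoked rise in systolic blood pressure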
Format: in vivo
Details: for inhibition in vivo at 3 mg/kg / inhibition in vivo at 5 mg/kg: Rattus norvegicus
In short: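 Conscious male SHR (16-20 weeks) with aortic and caval cannulae received angiotensin II at 0.05 and 0.1 ug/kg i.v. before and 30-300 min after compound dosing (i.v., i.p. or oral). Blockade is expressed as % of each rat's predose rise in systolic pressure.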

[1] = 3 mg/kg I.V., AII 0.05 mcg/kg IV, 30 min post dose
[2] = 3 mg/kg I.V., AII 0.05 mcg/kg IV, 90 min post dose
[3] = 3 mg/kg I.V., AII 0.05 mcg/kg IV, 120 min post dose
[4] = 3 mg/kg I.V., AII 0.05 mcg/kg IV, 180 min post dose
[5] = 3 mg/kg I.V., AII 0.05 mcg/kg IV, 240 min post dose
[6] = 3 mg/kg I.V., AII 0.1 mcg/kg IV, 30 min post dose
[7] = 3 mg/kg I.V., AII 0.1 mcg/kg IV, 60 min post dose
[8] = 3 mg/kg I.V., AII 0.1 mcg/kg IV, 90 min post dose
[9] = 3 mg/kg I.V., AII 0.1 mcg/kg IV, 120 min post dose
[10] = 3 mg/kg I.V., AII 0.1 mcg/kg IV, 180 min post dose
[11] = 3 mg/kg I.V., AII 0.1 mcg/kg IV, 240 min post dose
[12] = 5 mg/kg P.O., AII 0.05 mcg/kg IV, 60 min post dose
[13] = 5 mg/kg P.O., AII 0.05 mcg/kg IV, 120 min post dose
[14] = 5 mg/kg P.O., AII 0.1 mcg/kg IV, 60 min post dose
[15] = iv, 0.5 h, 3 mg/kg I.V., AII 0.05 mcg/kg IV, 30 min post dose
[16] = iv, 0.5 h, 3 mg/kg I.V., AII 0.1 mcg/kg IV, 30 min post dose
[17] = iv, 1 h, 3 mg/kg I.V., AII 0.1 mcg/kg IV, 60 min post dose
[18] = iv, 2 h, 3 mg/kg I.V., AII 0.1 mcg/kg IV, 120 min post dose
[19] = iv, 3 h, 3 mg/kg I.V., AII 0.05 mcg/kg IV, 180 min post dose
[20] = iv, 3 h, 3 mg/kg I.V., AII 0.1 mcg/kg IV, 180 min post dose
[21] = iv, 4 h, 3 mg/kg I.V., AII 0.05 mcg/kg IV, 240 min post dose
[22] = iv, 4 h, 3 mg/kg I.V., AII 0.1 mcg/kg IV, 240 min post dose
[23] = iv, […], 3 mg/kg I.V., AII 0.05 mcg/kg IV, 90 min post dose
[24] = iv, […], 3 mg/kg I.V., AII 0.1 mcg/kg IV, 90 min post dose
[25] = po, 0.5 h, 5 mg/kg P.O., AII 0.05 mcg/kg IV, 30 min post dose
[26] = po, 1 h, 5 mg/kg P.O., AII 0.05 mcg/kg IV, 60 min post dose
[27] = po, 1 h, 5 mg/kg P.O., AII 0.1 mcg/kg IV, 60 min post dose
[28] = po, 2 h, 5 mg/kg P.O., AII 0.05 mcg/kg IV, 120 min post dose
[29] = po, 3 h, 5 mg/kg P.O., AII 0.05 mcg/kg IV, 180 min post dose
[30] = po, 3 h, 5 mg/kg P.O., AII 0.1 mcg/kg IV, 180 min post dose
[31] = po, […], 5 mg/kg P.O., AII 0.05 mcg/kg IV, 90 min post dose
[32] = po, […], 5 mg/kg P.O., AII 0.1 mcg/kg IV, 90 min post dose
[33] = 1 mg/kg P.O., AII 0.05 mcg/kg IV, 60 min post dose
[34] = 1 mg/kg P.O., AII 0.05 mcg/kg IV, 90 min post dose
[35] = 1 mg/kg P.O., AII 0.05 mcg/kg IV, 120 min post dose
[36] = 1 mg/kg P.O., AII 0.05 mcg/kg IV, 180 min post dose
[37] = 1 mg/kg P.O., AII 0.05 mcg/kg IV, 240 min post dose
[38] = 1 mg/kg P.O., AII 0.1 mcg/kg IV, 60 min post dose
[39] = 1 mg/kg P.O., AII 0.1 mcg/kg IV, 90 min post dose
[40] = 1 mg/kg P.O., AII 0.1 mcg/kg IV, 120 min post dose
[41] = 1 mg/kg P.O., AII 0.1 mcg/kg IV, 180 min post dose
[42] = 1 mg/kg P.O., AII 0.1 mcg/kg IV, 240 min post dose

## CCCCc1nc2ccc([C@@H]3C[C@H]4c5ccccc5CCN4O3)cc2c(=O)n1Cc1ccc(-c2ccccc2-c2nnn[nH]2)cc1 (relative stereo) [Example 63, Cis-2-Butyl-6-(1,5,6,10b-tetrahydro-2H-isoxazolo[3,2-a]isoquinolin-2-yl)-3-[[2'-(1H-tetrazol5-yl)[1,1'-biphenyl]-4-yl]methyl]-4(3H)-quinazolinone]
[1]
  Response Average Change: 10.5 mmHg
[2]
  Response Average Change: 10 mmHg
[3]
  Response Average Change: 10 mmHg
[4]
  Response Average Change: 17.5 mmHg
[5]
  Response Average Change: 12.5 mmHg
3 mg/kg I.V., AII 0.05 mcg/kg IV, 300 min post dose
  Response Average Change: 23.5 mmHg
[6]
  Response Average Change: 10 mmHg
[7]
  Response Average Change: 15 mmHg
[8]
  Response Average Change: 17.5 mmHg
[9]
  Response Average Change: 17.5 mmHg
[10]
  Response Average Change: 22.5 mmHg
[11]
  Response Average Change: 23 mmHg
3 mg/kg I.V., AII 0.1 mcg/kg IV, 300 min post dose
  Response Average Change: 25 mmHg
3 mg/kg I.V., AII 0.5 mcg/kg IV, 60 min post dose
  Response Average Change: 10 mmHg
5 mg/kg P.O., AII 0.05 mcg/kg IV, 30 min post dose
  Response Average Change: 22.5 mmHg
[12]
  Response Average Change: 30 mmHg
5 mg/kg P.O., AII 0.05 mcg/kg IV, 90 min post dose
  Response Average Change: 20 mmHg
[13]
  Response Average Change: 16.5 mmHg
5 mg/kg P.O., AII 0.05 mcg/kg IV, 180 min post dose
  Response Average Change: 20 mmHg
5 mg/kg P.O., AII 0.1 mcg/kg IV, 30 min post dose
  Response Average Change: 35 mmHg
[14]
  Response Average Change: 42.5 mmHg
5 mg/kg P.O., AII 0.1 mcg/kg IV, 90 min post dose
  Response Average Change: 34 mmHg
5 mg/kg P.O., AII 0.1 mcg/kg IV, 120 min post dose
  Response Average Change: 32.5 mmHg
5 mg/kg P.O., AII 0.1 mcg/kg IV, 180 min post dose
  Response Average Change: 24 mmHg
[15]
  inhibition in vivo at 3 mg/kg: 70%
[16]
  inhibition in vivo at 3 mg/kg: 73%
[17]
  inhibition in vivo at 3 mg/kg: 60%
iv, 1 h, 3 mg/kg I.V., AII 0.5 mcg/kg IV, 60 min post dose
  inhibition in vivo at 3 mg/kg: 71%
iv, 2 h, 3 mg/kg I.V., AII 0.05 mcg/kg IV, 120 min post dose
  inhibition in vivo at 3 mg/kg: 71%
[18]
  inhibition in vivo at 3 mg/kg: 53%
[19]
  inhibition in vivo at 3 mg/kg: 50%
[20]
  inhibition in vivo at 3 mg/kg: 40%
[21]
  inhibition in vivo at 3 mg/kg: 64%
[22]
  inhibition in vivo at 3 mg/kg: 39%
iv, 5 h, 3 mg/kg I.V., AII 0.05 mcg/kg IV, 300 min post dose
  inhibition in vivo at 3 mg/kg: 33%
iv, 5 h, 3 mg/kg I.V., AII 0.1 mcg/kg IV, 300 min post dose
  inhibition in vivo at 3 mg/kg: 33%
[23]
  inhibition in vivo at 3 mg/kg: 71%
[24]
  inhibition in vivo at 3 mg/kg: 53%
[25]
  inhibition in vivo at 5 mg/kg: 49%
po, 0.5 h, 5 mg/kg P.O., AII 0.1 mcg/kg IV, 30 min post dose
  inhibition in vivo at 5 mg/kg: 18%
[26]
  inhibition in vivo at 5 mg/kg: 32%
[27]
  inhibition in vivo at 5 mg/kg: 0%
[28]
  inhibition in vivo at 5 mg/kg: 63%
po, 2 h, 5 mg/kg P.O., AII 0.1 mcg/kg IV, 120 min post dose
  inhibition in vivo at 5 mg/kg: 24%
[29]
  inhibition in vivo at 5 mg/kg: 55%
[30]
  inhibition in vivo at 5 mg/kg: 44%
[31]
  inhibition in vivo at 5 mg/kg: 55%
[32]
  inhibition in vivo at 5 mg/kg: 20%

## CCCCc1nc2ccc([C@@]3(C)C[C@@H]4CCCN4O3)cc2c(=O)n1Cc1ccc(-c2ccccc2-c2nnn[nH]2)cc1 (relative stereo) [Example 58, Cis-(+/-)-2-Butyl-6-(hexahydro-2-methylpyrrolo[1,2-1,2-b]isoxazol-2-yl) -3-[[2'-(1H-tetrazol-5-yl) [1,1'-biphenyl]-4-yl]methyl]-4(3H)-quinazolinone]
[33]
  % Inhibition: 62%
  Response Average Change: 16 mmHg
[34]
  % Inhibition: 68%
  Response Average Change: 13.5 mmHg
[35]
  % Inhibition: 67%
  Response Average Change: 14 mmHg
[36]
  % Inhibition: 82%
  Response Average Change: 7.5 mmHg
[37]
  % Inhibition: 82%
  Response Average Change: 7.5 mmHg
[38]
  % Inhibition: 37%
  Response Average Change: 30 mmHg
[39]
  % Inhibition: 44%
  Response Average Change: 26.5 mmHg
[40]
  % Inhibition: 53%
  Response Average Change: 22.5 mmHg
[41]
  % Inhibition: 56%
  Response Average Change: 21 mmHg
[42]
  % Inhibition: 68%
  Response Average Change: 15 mmHg
[1]
  Response Average Change: 0 mmHg
3 mg/kg I.V., AII 0.05 mcg/kg IV, 60 min post dose
  Response Average Change: 5 mmHg
[2]
  Response Average Change: 2.5 mmHg
[3]
  Response Average Change: 5 mmHg
[4]
  Response Average Change: 6.5 mmHg
[5]
  Response Average Change: 7.5 mmHg
[6]
  Response Average Change: 10 mmHg
[7]
  Response Average Change: 4 mmHg
[8]
  Response Average Change: 2.5 mmHg
[9]
  Response Average Change: 10 mmHg
[10]
  Response Average Change: 6.5 mmHg
[11]
  Response Average Change: 4 mmHg
[12]
  % Inhibition: 94%
  Response Average Change: 2.5 mmHg
[13]
  Response Average Change: 5 mmHg
5 mg/kg P.O., AII 0.05 mcg/kg IV, 300 min post dose
  Response Average Change: 1 mmHg
[14]
  % Inhibition: 100%
  Response Average Change: 0 mmHg
[15]
  inhibition in vivo at 3 mg/kg: 100%
[16]
  inhibition in vivo at 3 mg/kg: 78%
[17]
  inhibition in vivo at 3 mg/kg: 91%
[18]
  inhibition in vivo at 3 mg/kg: 78%
[19]
  inhibition in vivo at 3 mg/kg: 83%
[20]
  inhibition in vivo at 3 mg/kg: 86%
[21]
  inhibition in vivo at 3 mg/kg: 81%
[22]
  inhibition in vivo at 3 mg/kg: 91%
[23]
  inhibition in vivo at 3 mg/kg: 94%
[24]
  inhibition in vivo at 3 mg/kg: 94%
po, 0.5 h, 3 mg/kg P.O., AII 0.05 mcg/kg IV, 30 min post dose
  inhibition in vivo at 3 mg/kg: 75%
[25]
  inhibition in vivo at 5 mg/kg: 90%
po, 1 h, 3 mg/kg P.O., AII 0.05 mcg/kg IV, 60 min post dose
  inhibition in vivo at 3 mg/kg: 92%
po, 1 h, 3 mg/kg P.O., AII 0.1 mcg/kg IV, 60 min post dose
  inhibition in vivo at 3 mg/kg: 67%
[26]
  inhibition in vivo at 5 mg/kg: 94%
[27]
  inhibition in vivo at 5 mg/kg: 100%
po, 2 h, 3 mg/kg P.O., AII 0.05 mcg/kg IV, 120 min post dose
  inhibition in vivo at 3 mg/kg: 67%
po, 2 h, 3 mg/kg P.O., AII 0.1 mcg/kg IV, 120 min post dose
  inhibition in vivo at 3 mg/kg: 91%
[28]
  inhibition in vivo at 5 mg/kg: 88%
po, 3 h, 3 mg/kg P.O., AII 0.05 mcg/kg IV, 180 min post dose
  inhibition in vivo at 3 mg/kg: 75%
po, 3 h, 3 mg/kg P.O., AII 0.1 mcg/kg IV, 180 min post dose
  inhibition in vivo at 3 mg/kg: 74%
[29]
  inhibition in vivo at 5 mg/kg: 75%
[30]
  inhibition in vivo at 5 mg/kg: 89%
po, 4 h, 5 mg/kg P.O., AII 0.05 mcg/kg IV, 240 min post dose
  inhibition in vivo at 5 mg/kg: 93%
po, 5 h, 3 mg/kg P.O., AII 0.05 mcg/kg IV, 300 min post dose
  inhibition in vivo at 3 mg/kg: 57%
po, 5 h, 5 mg/kg P.O., AII 0.05 mcg/kg IV, 300 min post dose
  inhibition in vivo at 5 mg/kg: 98%
po, 5 h, 5 mg/kg P.O., AII 0.1 mcg/kg IV, 300 min post dose
  inhibition in vivo at 5 mg/kg: 84%
po, […], 3 mg/kg P.O., AII 0.05 mcg/kg IV, 90 min post dose
  inhibition in vivo at 3 mg/kg: 75%
[31]
  inhibition in vivo at 5 mg/kg: 88%
[32]
  inhibition in vivo at 5 mg/kg: 84%
